Measurements: patent US11434242B2, “Dopamine-b-hydroxylase inhibitors” (BIAL-PORTELA & Cª, S.A., priority 2017, dated 2022)
Marks after values point to notes of the source that are not given here.

Molecular target: T1, Dopamine beta hydroxylase (Homo sapiens, UniProt P09172)
T1 construct: 125 μl of plasma; tissue Instituto Português do Sangue Transplantação; host or cells: human plasma from healthy donors
T1 sequence (P09172 40-617 limits assumed): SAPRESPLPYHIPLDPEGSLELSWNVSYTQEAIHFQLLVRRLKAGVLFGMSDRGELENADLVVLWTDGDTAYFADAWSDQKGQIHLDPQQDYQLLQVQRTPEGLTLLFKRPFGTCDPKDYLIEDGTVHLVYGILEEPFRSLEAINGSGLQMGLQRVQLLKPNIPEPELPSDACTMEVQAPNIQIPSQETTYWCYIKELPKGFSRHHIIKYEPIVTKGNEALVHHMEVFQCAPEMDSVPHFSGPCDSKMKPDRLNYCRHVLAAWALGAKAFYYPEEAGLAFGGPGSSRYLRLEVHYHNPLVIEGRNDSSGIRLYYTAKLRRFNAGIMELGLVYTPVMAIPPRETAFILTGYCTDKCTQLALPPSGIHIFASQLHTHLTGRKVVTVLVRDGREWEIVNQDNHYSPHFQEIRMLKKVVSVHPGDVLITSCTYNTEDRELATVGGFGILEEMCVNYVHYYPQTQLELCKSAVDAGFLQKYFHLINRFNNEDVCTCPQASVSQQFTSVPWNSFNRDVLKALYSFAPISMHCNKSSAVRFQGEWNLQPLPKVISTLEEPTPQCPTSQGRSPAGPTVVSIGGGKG
Assay: Dopamine beta hydroxylase activity in human plasma
Assay type: biochemical
In short: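 Healthy-donor human plasma pre-incubated 10 min at 37° C with compound at final 10, 100 or 1000 nM in pH 5.0 acetate buffer with ascorbate, fumarate, pargyline, N-ethylmaleimide, catalase and copper sulfate. Tyramine substrate then added for 45 min; octopamine formed was isolated by SCX cartridge, periodate-converted and read at 330 nm; activity given as % control.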

## Cn1c(CC(=O)NC2CC2)c2n(c1=S)C[C@@]1(c3cc(Br)ccc3F)C[C@@H]21 [Example 357, 2-((5aS,6aR)-5a-(5-bromo-2-fluorophenyl)-2-methyl-3-thioxo-2,3,5,5a,6,6a-hexahydrocyclopropa[3,4]pyrrolo[1,2-c]imidazol-1-yl)-N-cyclopropylacetamide]
Inhibitor 0.01 μM
  Plasma (0.01 μM), activity in % of control: 62.1 % of control
Inhibitor 0.1 μM
  Plasma (0.1 μM), activity in % of control: 15.1 % of control

## CN(C)C(=O)C1CCN(C(=O)Cc2c3n(c(=S)n2C)C[C@@H](c2c(F)ccc(F)c2F)C3)C1 (stereo partly drawn) [Example 358, N,N-dimethyl-1-(2-((R)-2-methyl-3-thioxo-6-(2,3,6-trifluorophenyl)-2,5,6,7-tetrahydro-3H-pyrrolo[1,2-c]imidazol-1-yl)acetyl)pyrrolidine-3-carboxamide]
Inhibitor 0.01 μM
  Plasma (0.01 μM), activity in % of control: 90.1 % of control
Inhibitor 0.1 μM
  Plasma (0.1 μM), activity in % of control: 24.9 % of control

## Cn1c(CCN[C@@H]2CCOC2)c2n(c1=S)C[C@@]1(c3cc(Br)ccc3F)C[C@@H]21 [Example 359, (5aS,6aR)-5a-(5-bromo-2-fluorophenyl)-2-methyl-1-(2-(((R)-tetrahydrofuran-3-yl)amino)ethyl)-5,5a,6,6a-tetrahydrocyclopropa[3,4]pyrrolo[1,2-c]imidazole-3(2H)-thione]
Inhibitor 0.01 μM
  Plasma (0.01 μM), activity in % of control: 101.2 % of control
Inhibitor 0.1 μM
  Plasma (0.1 μM), activity in % of control: 53.3 % of control

## O=C(Cc1[nH]c(=S)n2c1C[C@H](c1c(F)c(F)cc(F)c1F)C2)N[C@@H]1CCOC1 [Example 360, 2-((R)-6-(2,3,5,6-tetrafluorophenyl)-3-thioxo-2,5,6,7-tetrahydro-3H-pyrrolo[1,2-c]imidazol-1-yl)-N—((R)-tetrahydrofuran-3-yl)acetamide]
Inhibitor 0.01 μM
  Plasma (0.01 μM), activity in % of control: 31.8 % of control
Inhibitor 0.01 μM, re-tested under the same experimental conditions, asterisked data believed to be correct
  Plasma (0.01 μM), activity in % of control, re-test (asterisked): 90.1* % of control
Inhibitor 0.1 μM
  Plasma (0.1 μM), activity in % of control: 1.4 % of control
Inhibitor 0.1 μM, re-tested under the same experimental conditions, asterisked data believed to be correct
  Plasma (0.1 μM), activity in % of control, re-test (asterisked): 22.5* % of control

## O=C(O)Cc1[nH]c(=S)n2c1[C@@H]1C[C@]1(c1cc(Br)ccc1F)C2 [Example 361, 2-((5aS,6aR)-5a-(5-bromo-2-fluorophenyl)-3-thioxo-2,3,5,5a,6,6a-hexahydrocyclopropa[3,4]pyrrolo[1,2-c]imidazol-1-yl)acetic Acid]
Inhibitor 0.01 μM
  Plasma (0.01 μM), activity in % of control: 60.0 % of control
Inhibitor 0.1 μM
  Plasma (0.1 μM), activity in % of control: 10.4 % of control

## O=C(Cc1[nH]c(=S)n2c1C[C@@H](c1c(F)ccc(Cl)c1F)C2)N[C@@H]1CCOC1 [Example 362, 2-((S)-6-(3-chloro-2,6-difluorophenyl)-3-thioxo-2,5,6,7-tetrahydro-3H-pyrrolo[1,2-c]imidazol-1-yl)-N—((R)-tetrahydrofuran-3-yl)acetamide]
Inhibitor 0.01 μM
  Plasma (0.01 μM), activity in % of control: 43.2 % of control
Inhibitor 0.1 μM
  Plasma (0.1 μM), activity in % of control: 11.8 % of control

## O=C(Cc1[nH]c(=S)n2c1C[C@@H](c1c(F)ccc(Cl)c1F)C2)N1CCOCC1 [Example 363, (S)-2-(6-(3-chloro-2,6-difluorophenyl)-3-thioxo-2,5,6,7-tetrahydro-3H-pyrrolo[1,2-c]imidazol-1-yl)-1-morpholinoethan-1-one]
Inhibitor 0.01 μM
  Plasma (0.01 μM), activity in % of control: 89.5 % of control
Inhibitor 0.1 μM
  Plasma (0.1 μM), activity in % of control: 20.8 % of control

## CN(C(=O)Cc1[nH]c(=S)n2c1C[C@H](c1c(F)ccc(F)c1F)C2)C1CCOC1 (stereo partly drawn) [Example 364, N-methyl-N-(tetrahydrofuran-3-yl)-2-((R)-3-thioxo-6-(2,3,6-trifluorophenyl)-2,5,6,7-tetrahydro-3H-pyrrolo[1,2-c]imidazol-1-yl)acetamide]
Inhibitor 0.01 μM
  Plasma (0.01 μM), activity in % of control: 97.0 % of control
Inhibitor 0.1 μM
  Plasma (0.1 μM), activity in % of control: 54.7 % of control

## O=C(Cc1[nH]c(=S)n2c1C[C@H](c1c(F)ccc(F)c1F)C2)N[C@@H]1CCCOC1 [Example 365, N—((R)-tetrahydro-2H-pyran-3-yl)-2-((R)-3-thioxo-6-(2,3,6-trifluorophenyl)-2,5,6,7-tetrahydro-3H-pyrrolo[1,2-c]imidazol-1-yl)acetamide]
Inhibitor 0.01 μM
  Plasma (0.01 μM), activity in % of control: 101.3 % of control
Inhibitor 0.1 μM
  Plasma (0.1 μM), activity in % of control: 56.9 % of control

## O=C(Cc1[nH]c(=S)n2c1C[C@H](c1c(F)ccc(F)c1F)C2)N1CCOCC1 [Example 366, (R)-2-(6-(2,3,6-trifluorophenyl)-3-thioxo-2,5,6,7-tetrahydro-3H-pyrrolo[1,2-c]imidazol-1-yl)-1-morpholinoethan-1-one]
Inhibitor 0.01 μM
  Plasma (0.01 μM), activity in % of control: 124.8 % of control
Inhibitor 0.1 μM
  Plasma (0.1 μM), activity in % of control: 81.4 % of control

## Cn1c(CC(=O)NC2CCOCC2)c2n(c1=S)C[C@H](c1c(F)ccc(Cl)c1F)C2 [Example 367, (S)-2-(6-(3-chloro-2,6-difluorophenyl)-2-methyl-3-thioxo-2,5,6,7-tetrahydro-3H-pyrrolo[1,2-c]imidazol-1-yl)-N-(tetrahydro-2H-pyran-4-yl)acetamide]
Inhibitor 0.01 μM
  Plasma (0.01 μM), activity in % of control: 45.4 % of control
Inhibitor 0.1 μM
  Plasma (0.1 μM), activity in % of control: 4.3 % of control

## O=C(Cc1[nH]c(=S)n2c1C[C@H](c1c(F)ccc(F)c1F)C2)N[C@@H]1CCOC1 [Example 368, 2-((R)-6-(2,3,6-trifluorophenyl)-3-thioxo-2,5,6,7-tetrahydro-3H-pyrrolo[1,2-c]imidazol-1-yl)-N—((R)-tetrahydrofuran-3-yl)acetamide]
Inhibitor 0.01 μM
  Plasma (0.01 μM), activity in % of control: 104.4 % of control
Inhibitor 0.1 μM
  Plasma (0.1 μM), activity in % of control: 63.1 % of control

## O=C(Cc1[nH]c(=S)n2c1C[C@H](c1c(F)c(F)cc(F)c1F)C2)N[C@H]1CCOC1 [Example 369, 2-((R)-6-(2,3,5,6-tetrafluorophenyl)-3-thioxo-2,5,6,7-tetrahydro-3H-pyrrolo[1,2-c]imidazol-1-yl)-N—((S)-tetrahydrofuran-3-yl)acetamide]
Inhibitor 0.01 μM
  Plasma (0.01 μM), activity in % of control: 86.0 % of control
Inhibitor 0.1 μM
  Plasma (0.1 μM), activity in % of control: 60.1 % of control

## O=C(Cc1[nH]c(=S)n2c1C[C@H](c1c(F)ccc(F)c1F)C2)N[C@H]1CCOC1 [Example 370, 2-((R)-6-(2,3,6-trifluorophenyl)-3-thioxo-2,5,6,7-tetrahydro-3H-pyrrolo[1,2-c]imidazol-1-yl)-N—((S)-tetrahydrofuran-3-yl)acetamide]
Inhibitor 0.01 μM
  Plasma (0.01 μM), activity in % of control: 88.5 % of control
Inhibitor 0.1 μM
  Plasma (0.1 μM), activity in % of control: 64.7 % of control

## CN1CC(NC(=O)Cc2c3n(c(=S)n2C)C[C@@H](c2c(F)ccc(F)c2F)C3)CCC1=O (stereo partly drawn) [Example 371, 2-((R)-2-methyl-3-thioxo-6-(2,3,6-trifluorophenyl)-2,5,6,7-tetrahydro-3H-pyrrolo[1,2-c]imidazol-1-yl)-N-(1-methyl-6-oxopiperidin-3-yl)acetamide]
Inhibitor 0.01 μM
  Plasma (0.01 μM), activity in % of control: 79.0 % of control
Inhibitor 0.1 μM
  Plasma (0.1 μM), activity in % of control: 17.7 % of control

## CN(C(=O)Cc1c2n(c(=S)n1C)C[C@@H](c1c(F)ccc(F)c1F)C2)C1CCOCC1 [Example 372, (R)—N-methyl-2-(2-methyl-3-thioxo-6-(2,3,6-trifluorophenyl)-2,5,6,7-tetrahydro-3H-pyrrolo[1,2-c]imidazol-1-yl)-N-(tetrahydro-2H-pyran-4-yl)acetamide]
Inhibitor 0.01 μM
  Plasma (0.01 μM), activity in % of control: 93.4 % of control
Inhibitor 0.1 μM
  Plasma (0.1 μM), activity in % of control: 32.0 % of control

## CN(C(=O)Cc1c2n(c(=S)n1C)C[C@H](c1c(F)ccc(Cl)c1F)C2)C1CCOCC1 [Example 373, (S)-2-(6-(3-chloro-2,6-difluorophenyl)-2-methyl-3-thioxo-2,5,6,7-tetrahydro-3H-pyrrolo[1,2-c]imidazol-1-yl)-N-methyl-N-(tetrahydro-2H-pyran-4-yl)acetamide]
Inhibitor 0.01 μM
  Plasma (0.01 μM), activity in % of control: 66.1 % of control
Inhibitor 0.1 μM
  Plasma (0.1 μM), activity in % of control: 12.8 % of control

## CN(C(=O)Cc1c2n(c(=S)n1C)C[C@@H](c1c(F)ccc(F)c1F)C2)C1CCOC1 (stereo partly drawn) [Example 374, N-methyl-2-((R)-2-methyl-3-thioxo-6-(2,3,6-trifluorophenyl)-2,5,6,7-tetrahydro-3H-pyrrolo[1,2-c]imidazol-1-yl)-N-(tetrahydrofuran-3-yl)acetamide]
Inhibitor 0.01 μM
  Plasma (0.01 μM), activity in % of control: 97.4 % of control
Inhibitor 0.1 μM
  Plasma (0.1 μM), activity in % of control: 50.0 % of control

## CN(C(=O)Cc1c2n(c(=S)n1C)C[C@@H](c1c(F)c(F)cc(F)c1F)C2)C1CCOC1 (stereo partly drawn) [Example 375, N-methyl-2-((R)-2-methyl-6-(2,3,5,6-tetrafluorophenyl)-3-thioxo-2,5,6,7-tetrahydro-3H-pyrrolo[1,2-c]imidazol-1-yl)-N-(tetrahydrofuran-3-yl)acetamide]
Inhibitor 0.01 μM
  Plasma (0.01 μM), activity in % of control: 90.0 % of control
Inhibitor 0.1 μM
  Plasma (0.1 μM), activity in % of control: 40.7 % of control

## O=C(Cc1[nH]c(=S)n2c1C[C@H](c1c(F)ccc(F)c1F)C2)NC1CCOCC1 [Example 376, (R)—N-(tetrahydro-2H-pyran-4-yl)-2-(3-thioxo-6-(2,3,6-trifluorophenyl)-2,5,6,7-tetrahydro-3H-pyrrolo[1,2-c]imidazol-1-yl)acetamide]
Inhibitor 0.01 μM
  Plasma (0.01 μM), activity in % of control: 116.3 % of control
Inhibitor 0.1 μM
  Plasma (0.1 μM), activity in % of control: 59.3 % of control
